Measurements as given in patent US20030148483A1, “Method of removing residual enzymes in enzyme microencapsulation” (priority 2002, published 2003).

Assays:
[1] = test system: uncapsulated lactase; experiment: Assay for the activity of uncapsulated lactase after ozone treatment (ONPG, absorbance at 420 nm); format: biochemical; conditions: initial activity 100%
Method: After centrifuging the dispersion fluid of microcapsules prepared by ozone treatment in Examples 2 to 4 at 24,900×g for 10 min, the resulting supernatants were assayed for activity of uncapsulated lactase.
A portion of each of the supernatants was primarily filtered using Whatman No. 540 (Whatman International Ltd., Maidstone, England), and then further filtered using an 1 μm membrane filter (Whatman International Ltd., Maidstone, England).
Thereafter, 0.5 ml of the filtered supernatant was mixed with 2 ml of a solution of 0.05 M ONPG (Ortho-nitrophenol-β-D-galactopyranoside, Sigma Chemical Co., St. Louis, Mo. USA) preheated at 37° C. for 15 min, followed by incubation for 20 min at 37° C. After 20 min, the reaction was terminated with adding 0.5 ml of a 0.5 M Na2CO3 solution (Shinoyo Pure Chemical Co., Ltd., Osaka, Japan) thereto.
Absorbance at 420 nm was measured using a spectrophotometer (Beckman Du 650 spectrophotometer; Beckman Instrument, Inc, Fullerton, Calif., USA), and the results are given in FIG. 2.

[2] = test system: microencapsulated lactase; experiment: Effect of ozone treatment on the activity of microencapsulated lactase (heating method, ONPG); format: biochemical; conditions: initial activity 100%
Method: With an aim to investigate effect of ozone treatment on microencapsulated lactase, microcapsules containing lactase were collected from the ozone-treated dispersion fluid prepared in Examples 2 to 4 by centrifugation, and the activity of microencapsulated lactase was measured using a heating method among yield analysis methods disclosed in Korean Pat. No. 88465.
0.5 ml of the resulting dispersion fluid containing microcapsules was mixed with 2 ml of 0.05 M ONPG pre-heated at 50° C. for 10 min. After 5 min, the reaction was terminated with adding 0.5 ml of 0.5M Na2CO3 thereto, and absorbance at 420 nm was measured using a spectrophotometer (Beckman Du 650 spectrophotometer, Beckman Instrument, Inc., Fullerton, Calif., USA). The results are given in FIG. 3, where the initial activity of lactase is 100%.
Yield of microcapsule=1−Activity of uncapsulated lactase/ Initial activity of lactase×100

[3] = test system: Bacillus subtilis; experiment: Effect of ozone treatment on growth of microorganisms (colony count); format: cell-based; conditions: ozone 10 ppm, 2° C.; for viability: 0 min = 100
Method: (§1) Microorganisms were treated with ozone of 10 ppm, at which concentration much of untrapped lactase loses its activity, while microencapsulated lactase retains effective activity, and effect of ozone on the growth of microorganisms was investigated.
(§2) Pathogenic microorganisms found especially in food, including Escherichia coli, Bacillus subtilis, Staphylococcus aureus, Salmonella typhimurium, Pseudomonas aeruginosa, and Enterobacter aerogenes, were obtained from Korean Culture Center of Microorganisms (Seoul, Korea) and stored in broth containing 50% glycerol at −70° C. until use. The five strains, except S. aureus, were cultured in nutrient broth (NB), and S. aureus was cultured in tryptic soy broth (TSB) for 24 hours at 37° C.
(§3) Trace amounts of the cultured microorganisms were mixed with the dispersion fluid of microcapsules, followed by treatment of ozone of 10 ppm at 2° C. under a flow rate of 10 L/min using an ozone generator.
(§4) After being serially diluted, the ozone-treated microorganisms were plated onto nutrient agar broth.

[4] = test system: Enterobacter aerogenes; experiment: as above; format: cell-based; conditions: ozone 10 ppm, 2° C.; for viability: 0 min = 100
Method: as §1, §2, §3, §4

[5] = test system: Escherichia coli; experiment: as above; format: cell-based; conditions: ozone 10 ppm, 2° C.; for viability: 0 min = 100
Method: as §1, §2, §3, §4

[6] = test system: Pseudomonas aeruginosa; experiment: as above; format: cell-based; conditions: ozone 10 ppm, 2° C.; for viability: 0 min = 100
Method: as §1, §2, §3, §4

[7] = test system: Salmonella typhimurium; experiment: as above; format: cell-based; conditions: ozone 10 ppm, 2° C.; for viability: 0 min = 100
Method: as §1, §2, §3, §4

[8] = test system: Staphylococcus aureus; experiment: as above; format: cell-based; conditions: ozone 10 ppm, 2° C.; for viability: 0 min = 100
Method: as §1, §2, §3, §4

O=[O+][O-] [ozone]
activity of lactase (uncapsulated) ([1]; 1 ppm of ozone, 1 min): about 94.3%
activity of lactase (uncapsulated) ([1]; 1 ppm of ozone, 5 min): 56.4%
activity of lactase (uncapsulated) ([1]; 1 ppm of ozone, 10 min): 26.5%
activity of lactase (uncapsulated) ([1]; 5 ppm of ozone, 1 min): 82%
activity of lactase (uncapsulated) ([1]; 5 ppm of ozone, 5 min): 42.8%
activity of lactase (uncapsulated) ([1]; 5 ppm of ozone, 10 min): 20%
activity of lactase (uncapsulated) ([1]; 10 ppm of ozone, 1 min): 57.8%
activity of lactase (uncapsulated) ([1]; 10 ppm of ozone, 5 min): 32.8%
activity of lactase (uncapsulated) ([1]; 10 ppm of ozone, 10 min): 9.7%
activity of lactase entrapped into microcapsules ([2]; 1 ppm of ozone, 1 min): about 97%
activity of lactase entrapped into microcapsules ([2]; 1 ppm of ozone, 5 min): 91%
activity of lactase entrapped into microcapsules ([2]; 1 ppm of ozone, 10 min): 74%
activity of lactase entrapped into microcapsules ([2]; 5 ppm of ozone, 1 min): 96%
activity of lactase entrapped into microcapsules ([2]; 5 ppm of ozone, 5 min): 82%
activity of lactase entrapped into microcapsules ([2]; 5 ppm of ozone, 10 min): 67%
activity of lactase entrapped into microcapsules ([2]; 10 ppm of ozone, 1 min): 93%
activity of lactase entrapped into microcapsules ([2]; 10 ppm of ozone, 5 min): 79%
activity of lactase entrapped into microcapsules ([2]; 10 ppm of ozone, 10 min): 65%
colonies counted ([3]; treatment time 0.5 min): 9.6 × 10^7 CFU/ml
viability ([3]; treatment time 0.5 min): 60%
colonies counted ([3]; treatment time 1 min): 2.2 × 10^7 CFU/ml
viability ([3]; treatment time 1 min): (14) %
colonies counted ([3]; treatment time 5 min): 6.0 × 10^6 CFU/ml
viability ([3]; treatment time 5 min): (3.7) %
colonies counted ([3]; treatment time 10 min): 0 CFU/ml
viability ([3]; treatment time 10 min): (0) %
colonies counted ([4]; treatment time 0.5 min): 5.4 × 10^6 CFU/ml
viability ([4]; treatment time 0.5 min): 38%
colonies counted ([4]; treatment time 1 min): 1.0 × 10^6 CFU/ml
viability ([4]; treatment time 1 min): (7.1) %
colonies counted ([4]; treatment time 5 min): 2.4 × 10^5 CFU/ml
viability ([4]; treatment time 5 min): (1.7) %
colonies counted ([4]; treatment time 10 min): 0 CFU/ml
viability ([4]; treatment time 10 min): (0) %
colonies counted ([5]; treatment time 0.5 min): 8.9 × 10^7 CFU/ml
viability ([5]; treatment time 0.5 min): 3.7%
colonies counted ([5]; treatment time 1 min): 3.1 × 10^7 CFU/ml
viability ([5]; treatment time 1 min): (1.3) %
colonies counted ([5]; treatment time 5 min): 9.0 × 10^6 CFU/ml
viability ([5]; treatment time 5 min): (0.3) %
colonies counted ([5]; treatment time 10 min): 0 CFU/ml
viability ([5]; treatment time 10 min): (0) %
colonies counted ([6]; treatment time 0.5 min): 1.2 × 10^8 CFU/ml
viability ([6]; treatment time 0.5 min): (35) %
colonies counted ([6]; treatment time 1 min): 7.5 × 10^7 CFU/ml
viability ([6]; treatment time 1 min): 22%
colonies counted ([6]; treatment time 5 min): 3.6 × 10^6 CFU/ml
viability ([6]; treatment time 5 min): 1%
colonies counted ([6]; treatment time 10 min): 0 CFU/ml
viability ([6]; treatment time 10 min): (0) %
colonies counted ([7]; treatment time 0.5 min): 8.4 × 10^8 CFU/ml
viability ([7]; treatment time 0.5 min): 34%
colonies counted ([7]; treatment time 1 min): 1.1 × 10^7 CFU/ml
viability ([7]; treatment time 1 min): 0.4%
colonies counted ([7]; treatment time 5 min): 1.5 × 10^6 CFU/ml
viability ([7]; treatment time 5 min): (0.06) %
colonies counted ([7]; treatment time 10 min): 0 CFU/ml
viability ([7]; treatment time 10 min): (0) %
colonies counted ([8]; treatment time 0.5 min): 1.0 × 10^8 CFU/ml
viability ([8]; treatment time 0.5 min): (15) %
colonies counted ([8]; treatment time 1 min): 6.4 × 10^7 CFU/ml
viability ([8]; treatment time 1 min): (9.4) %
colonies counted ([8]; treatment time 5 min): 1.2 × 10^7 CFU/ml
viability ([8]; treatment time 5 min): (1.8) %
colonies counted ([8]; treatment time 10 min): 1.1 × 10^5 CFU/ml
viability ([8]; treatment time 10 min): (0.01) %
